The experiment concerns TNFα. In words: Cot Monocyte TNFα Cell Based Assay.
The mark [1] stands for this setting: read-out: EC50 TNF, LPS-stimulated human monocytes, TNFα.
[2] abbreviates: Homo sapiens, Monocyte, read-out: EC50 TNF, LPS-stimulated human monocytes, TNFα.
Where [3] appears, read: Homo sapiens, Monocyte, read-out: EC50 TNF, LPS-stimulated human monocytes, TNFα TR-FRET.

Consider 26 molecules from patent publication US11066414B2, “Cot modulators and methods of use thereof” (Gilead Sciences, Inc., priority 2015, dated 2021).

Structures are written as SMILES. Where two headings read alike, the source gives them in different places.

As a reminder, the EC50 is the concentration that produces a half-maximal response.

On to `COc1nccc2c([C@H](Nc3cc(Cl)c4ncc(C#N)c(NCC(C)(C)C)c4c3)c3cn([C@@H](C)CF)nn3)cccc12` [Example 932, 8-chloro-6-(((S)-(1-((S)-1-fluoropropan-2-yl)-1H-1,2,3-triazol-4-yl)(1-methoxylsoquinolin-5-yl)methyl)amino)-4-(neopentylamino)quinoline-3-carbonitrile], for which the 50% effective concentration (EC50) (read-out: EC50 TNF, LPS-stimulated human monocytes, TNFα TR-FRET) was 0.205 µM.
On to `CC(C)(C)N1CCC(n2cc([C@@H](Nc3cc(Cl)c4ncc(C#N)c(Nc5ccc(F)c(Cl)c5)c4c3)c3cccnc3)nn2)CC1` [Example 369, (S)-6-(((1-(1-(tert-butyl)piperidin-4-yl)-1H-1,2,3-triazol-4-yl)(pyridin-3-yl)methyl)amino)-8-chloro-4-((3-chloro-4-fluorophenyl)amino)quin-oline-3-carbonitrile], for which the EC50 under setting [1] amounted to 0.089 µM.
As to `Cc1nc(F)ccc1[C@H](Nc1cc(Cl)c2ncc(C#N)c(NCC(C)(C)C)c2c1)c1cn(CC(C)(F)F)nn1` [Example 749, (S)-8-chloro-6-(((1-(2,2-difluoropropyl)-1H-1,2,3-triazol-4-yl)(6-fluoro-2-methylpyridin-3-yl)methyl)amino)-4-(neopentylamino)quinoline-3-carbonitrile], the EC50 under setting [2] worked out at 0.066 µM.
On the same count and under the same terms, as for `CC(C)(C)CNc1c(C#N)cnc2c(Cl)cc(N[C@H](c3cn(C(C)(C)C(F)F)nn3)c3cccc4ncccc34)cc12` [Example 693, (S)-8-chloro-6-(((1-(1,1-difluoro-2-methylpropan-2-yl)-1H-1,2,3-triazol-4-yl)(quinolin-5-yl)methyl)amino)-4-(neopentylamino)quinoline-3-carbonitrile], the figure is 0.141 µM; as for `Cc1ncsc1[C@H](Nc1cc(Cl)c2ncc(C#N)c(Nc3cnc(F)c(F)c3)c2c1)c1c[nH]nn1` [Example 170, (R)-8-chloro-4-((5,6-difluoropyridin-3-yl)amino)-6-(((4-methylthiazol-5-yl)(1H-1,2,3-triazol-4-yl)methyl)amino)quinoline-3-carbonitrile], 1.26 µM.
For `Cc1ncsc1[C@H](Nc1cc(C#N)c2ncc(C#N)c(NCC(C)(C)C)c2c1)c1cn(C2(C3CC3)CC2)nn1` [Example 903, (R)-6-(((1-([1,1′-bi(cyclopropan)]-1-yl)-1H-1,2,3-triazol-4-yl)(4-methylthiazol-5-yl)methyl)amino)-4-(neopentylamino)quinoline-3,8-dicarbonitrile], the EC50 under setting [3] worked out at 0.036 µM.
On to `Cc1nc(F)ccc1[C@H](Nc1cc(F)c2ncc(C#N)c(NCC(C)(C)C)c2c1)c1cn(C2(C#N)CC2)nn1` [Example 485, (S)-6-(((1-(1-cyanocyclopropyl)-1H-1,2,3-triazol-4-yl)(6-fluoro-2-methylpyridin-3-yl)methyl)amino)-8-fluoro-4-(neopentyl-amino)quinoline-3-carbonitrile], for which, under setting [2], the 50% effective concentration (EC50) turned out to be 0.029 µM.
For the molecule `CC(C)n1cc([C@@H](Nc2cc(Cl)c3ncc(C#N)c(Nc4ccc(F)c(Cl)c4)c3c2)c2csc(N3CCOCC3)n2)nn1` [Example 301, (S)-8-chloro-4-((3-chloro-4-fluoro-phenyl)amino)-6-(((1-isopropyl-1H-1,2,3-triazol-4-yl)(2-morpholinothiazol-4-yl)methyl)amino)quinoline-3-carbonitrile], under setting [2], the EC50 came to 0.414 µM.
For the molecule `CC(C)(C)CNc1c(C#N)cnc2c(Cl)cc(N[C@H](c3cn(C4(C(F)(F)F)CC4)nn3)c3cccc4c(Cl)nccc34)cc12` [Example 916, (S)-8-chloro-6-(((1-chloroisoquinolin-5-yl)(1-(1-(trifluoromethyl)cyclopropyl)-1H-1,2,3-triazol-4-yl)methyl)amino)-4-(neopentylamino)quinoline-3-carbonitrile], the EC50 under setting [3] amounted to 0.269 µM.
In the case of `N#Cc1cnc2c(Cl)cc(N[C@H](c3cn(C4CC4)nn3)c3cnccc3Cl)cc2c1Nc1cnc(F)c(F)c1` [Example 133, (S)-8-chloro-6-(((4-chloropyridin-3-yl)(1-cyclopropyl-1H-1,2,3-triazol-4-yl)methyl)amino)-4-((5,6-difluoropyridin-3-yl)amino)quinoline-3-carbonitrile], the EC50 under setting [2] is 0.978 µM.
As to `Cc1ncccc1[C@H](Nc1cc(Cl)c2ncc(C#N)c(N[C@H](C)c3ccccc3)c2c1)c1cn(C2CCN(C(C)(C)C)CC2)nn1` [Example 231], the EC50 under setting [1] was found to be 0.23 µM.
Still for that read-out and setting: as for `CC(C)(C)N1CCC(n2cc([C@@H](Nc3cc(Cl)c4ncc(C#N)c(Nc5cnc(F)c(F)c5)c4c3)c3cccnc3)nn2)CC1` [Example 208], the figure is 0.465 µM.
For the molecule `CC(C)(C)N1CCC(n2cc([C@@H](Nc3cc(Cl)c4ncc(C#N)c(Nc5ccc(F)c(Cl)c5)c4c3)c3cocn3)nn2)CC1` [Example 348, (S)-6-(((1-(1-(tert-butyl)piperidin-4-yl)-1H-1,2,3-triazol-4-yl)(oxazol-4-yl)methyl)amino)-8-chloro-4-((3-chloro-4-fluorophenyl)amino)-quinoline-3-carbonitrile], the EC50 under setting [2] amounted to 0.444 µM.
Same read-out and setting: as for `CC(C)(C)CNc1c(C#N)cnc2c(Cl)cc(N[C@@H](c3ccc4cccnc4c3)c3cn(C4(C(F)F)CC4)nn3)cc12` [Example 699, (S)-8-chloro-6-(((1-(1-(difluoromethyl)cyclopropyl)-1H-1,2,3-triazol-4-yl)(quinolin-7-yl)methyl)amino)-4-(neopentylamino)quinoline-3-carbonitrile], the figure is 0.386 µM; as for `Cc1ccc([C@H](Nc2cc(Cl)c3ncc(C#N)c(NCC(C)(C)C)c3c2)c2cn(C3(C(F)(F)F)CC3)nn2)c(C)n1` [Example 687, (S)-8-chloro-6-(((2,6-dimethylpyridin-3-yl)(1-(1-(trifluoromethyl)cyclopropyl)-1H-1,2,3-triazol-4-yl)methyl)amino)-4-(neopentylamino)quinoline-3-carbonitrile], 0.178 µM; as for `Cc1ncoc1[C@H](Nc1cc(Cl)c2ncc(C#N)c(NCC(C)(C)C)c2c1)c1cn(C2(C(F)F)CC2)nn1` [Example 630, (R)-8-chloro-6-(((1-(1-(difluoromethyl)cyclopropyl)-1H-1,2,3-triazol-4-yl)(4-methyloxazol-5-yl)methyl)amino)-4-(neopentylamino)quinoline-3-carbonitrile], 1 µM.
Still for that read-out and setting: as for `CC(C)(C)CNc1c(C#N)cnc2c(Cl)cc(N[C@H](c3cn(C4(C(F)(F)F)CC4)nn3)c3ccc(F)c4cnccc34)cc12` [Example 616, (S)-8-chloro-6-(((8-fluoroisoquinolin-5-yl)(1-(1-(trifluoromethyl)cyclopropyl)-1H-1,2,3-triazol-4-yl)methyl)amino)-4-(neopentylamino)quinoline-3-carbonitrile], the figure is 0.104 µM; as for `CCN1CCC(n2cc([C@@H](Nc3cc(Cl)c4ncc(C#N)c(Nc5ccc(F)c(Cl)c5)c4c3)c3ccc(Cl)s3)nn2)CC1` [Example 382, (R)-8-chloro-4-((3-chloro-4-fluoro-phenyl)amino)-6-(((5-chlorothiophen-2-yl)(1-(1-ethylpiperidin-4-yl)-1H-1,2,3-triazol-4-yl)methyl)amino)quinoline-3-carbonitrile], 0.768 µM; as for `N#Cc1cnc2c(Cl)cc(N[C@@H](c3cccnc3)c3cn(C4COC4)nn3)cc2c1N[C@@H](CCO)c1ccccc1` [Example 182, 8-chloro-4-(((S)-3-hydroxy-1-phenylpropyl)amino)-6-(((S)-(1-(oxetan-3-yl)-1H-1,2,3-triazol-4-yl)(pyridin-3-yl)methyl)amino)quinoline-3-carbonitrile], 1.04 µM.
Consider `Cc1nc(F)ccc1[C@H](Nc1cc(C#N)c2ncc(C#N)c(N[C@@H](c3ccccc3)C3CC3)c2c1)c1cn(C2(C(F)(F)F)CC2)nn1` [Example 613, 4-(((R)-cyclopropyl(phenyl)methyl)amino)-6-(((S)-(6-fluoro-2-methylpyridin-3-yl)(1-(1-(trifluoromethyl)cyclopropyl)-1H-1,2,3-triazol-4-yl)methyl)amino)quinoline-3,8-dicarbonitrile], for which the EC50 under setting [2] is 0.144 µM.
On to `Cn1cc(CNc2cc(Cl)c3ncc(C#N)c(Nc4ccc(F)c(Cl)c4)c3c2)nn1` [Comparative Example 3, reference compound], for which the “IC50/EC50 [nM]: EC50 (TNFα)” value (second value of the cell IC50/EC50, LPS-stimulated human monocytes, TNFα by TR-FRET) is more than 10000 nM.
For the molecule `Cc1ccc([C@H](Nc2cc(Cl)c3ncc(C#N)c(NCC(C)(C)C)c3c2)c2cn(C3(C(F)(F)F)CC3)nn2)cn1` [Example 795, (S)-8-chloro-6-(((6-methylpyridin-3-yl)(1-(1-(trifluoromethyl)cyclopropyl)-1H-1,2,3-triazol-4-yl)methyl)amino)-4-(neopentylamino)quinoline-3-carbonitrile], the half-maximal effective concentration (EC50) under setting [2] came to 0.53 µM.
The same measure, in the same setting: as for `CC[C@@H](Nc1c(C#N)cnc2c(Cl)cc(N[C@@H](c3cccnc3)c3cn(C4COC4)nn3)cc12)c1ccccc1` [Example 194, 8-chloro-6-(((S)-(1-(oxetan-3-yl)-1H-1,2,3-triazol-4-yl)(pyridin-3-yl)methyl)amino)-4-(((R)-1-phenylpropyl)amino)quinoline-3-carbonitrile], the figure is 0.111 µM; as for `Cc1nc(F)ccc1[C@H](Nc1cc(Cl)c2ncc(C#N)c(NCC(C)(C)C)c2c1)c1cn(CC2(C(F)(F)F)CC2)nn1` [Example 751, (S)-8-chloro-6-(((6-fluoro-2-methylpyridin-3-yl)(1-((1-(trifluoromethyl)-cyclopropyl)methyl)-1H-1,2,3-triazol-4-yl)methyl)amino)-4-(neopentylamino)quinoline-3-carbonitrile], 0.23 µM.
Still for that read-out and setting: as for `CC(C)(C)n1cc([C@@H](Nc2cc(Cl)c3ncc(C#N)c(Nc4ccc(F)c(Cl)c4)c3c2)c2cscn2)nn1` [Example 361, (S)-6-(((1-(tert-butyl)-1H-1,2,3-triazol-4-yl)(thiazol-4-yl)methyl)-amino)-8-chloro-4-((3-chloro-4-fluorophenyl)amino)quinoline-3-carbonitrile], the figure is 0.746 µM.
For the molecule `Cn1cccc([C@H](Nc2cc(C#N)c3ncc(C#N)c(NCC(C)(C)C)c3c2)c2cn(C3(C(F)(F)F)CC3)nn2)c1=O` [Example 844, (S)-6-(((1-methyl-2-oxo-1,2-dihydropyridin-3-yl)(1-(1-(trifluoromethyl)cyclopropyl)-1H-1,2,3-triazol-4-yl)methyl)amino)-4-(neopentylamino)quinoline-3,8-dicarbonitrile], the EC50 under setting [3] was 0.417 µM.
